Patent publication US9540343B2 (Gilead Sciences, Inc., priority 2011, dated 2017)

Legend:
[1] = in vitro; conditions: human, uninfected MT-4 cells, CC50 (nM), same protocol as Test A, CellTiter-Glo
Method in brief: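 Cytoprotection read-out: CellTiter-Glo chemiluminescence after 5 days at 37 °C of HIV-IIIb-infected MT-4 cells (m.o.i. 0.003) with compound in 10-point 3-fold dilutions, quadruplicate, 10% FBS. Cytotoxicity (CC50) measured identically without virus.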

[2] = test system: HIV-IIIb; experiment: Test A: Antiviral assay in MT4 cells; type: cell-based, HIV-1; conditions: Human immunodeficiency virus 1, IIIB, MT4, 120 h, read-out: % inhibition at 2 μM, percent inhibition of virus-induced cell killing, from dose response curve at 2 uM drug; MT-4 cells infected with HIV-IIIb, 5 days, CellTiter-Glo

| SMILES | CC50 at 5 days [1] | inhibition at 2 µM [2] |
| --- | --- | --- |
| NC(=O)c1cc(-c2cncnc2[C@H](Cc2cc(F)cc(F)c2)NC(=O)Cn2nc(C(F)F)c3c2C(F)(F)C2CC32)ccc1F (stereo partly drawn) [Example 180, 5-(4-((1S)-1-(2-(3-(difluoromethyl)-5,5-difluoro-3b,4,4a,5-tetrahydro-1H-cyclopropa[3,4]cyclopenta[1,2-c]pyrazol-1-yl)acetamido)-2-(3,5-difluorophenyl)ethyl)pyrimidin-5-yl)-2-fluorobenzamide] | > 50400 nM | 93% |
| CC(C)(C)OC(=O)N1Cc2c(C(F)(F)F)nn(CC(=O)N[C@@H](Cc3cc(F)cc(F)c3)c3ncccc3-c3ccc(F)c(C(N)=O)c3)c2C1 [Example 227, (S)-tert-butyl 1-(2-((1-(3-(3-carbamoyl-4-fluorophenyl)pyridin-2-yl)-2-(3,5-difluorophenyl)ethyl)amino)-2-oxoethyl)-3-(trifluoromethyl)-4,6-dihydropyrrolo[3,4-c]pyrazole-5(1H)-carboxylate] | 14300 nM | 1% |
| NC(=O)c1cc(-c2cccnc2[C@H](Cc2cc(F)cc(F)c2)NC(=O)Cn2nc(C(F)F)c3c2CC2CC32)ccc1F (single isomer, unassigned) [Example 248] | 26500 nM | 88% |
| NS(=O)(=O)c1ccc(-c2cccnc2[C@H](Cc2cc(F)cc(F)c2)NC(=O)Cc2c[nH]c3ccc(O)cc23)cc1 [Example 43, (S)—N-(2-(3,5-difluorophenyl)-1-(3-(4-sulfamoylphenyl)pyridin-2-yl)ethyl)-2-(5-hydroxy-1H-indol-3-yl)acetamide] | > 53000 nM | 28% |
| NC(=O)c1cc(-c2cccnc2[C@H](Cc2cc(F)cc(F)c2)NC(=O)Cn2nc(C=O)c3c2C2CCC3C2)ccc1F (stereo partly drawn) [Example 403, (S)-5-(2-(2-(3,5-difluorophenyl)-1-(2-(4,5,6,7-tetrahydro-3-formyl-4,7-(methano)indazol-1-yl)acetamido)ethyl)pyridin-3-yl)-2-fluorobenzamide] | 10500 nM | 112% |
| NC(=O)c1cc(-c2cccnc2[C@H](Cc2cc(F)cc(F)c2)NC(=O)Cn2nc(C(F)F)c3c2C(F)(F)CCC3=O)ccc1F [Example 285G, (S)-5-(2-(1-(2-(3-(difluoromethyl)-7,7-difluoro-4-oxo-4,5,6,7-tetrahydro-1H-indazol-1-yl)acetamido)-2-(3,5-difluorophenyl)ethyl)pyridin-3-yl)-2-fluorobenzamide] | 48500 nM | 58% |
| CCC(C(=O)N[C@@H](Cc1cc(F)cc(F)c1)c1ncccc1-c1ccc(F)c(C(N)=O)c1)n1nc(C(F)(F)F)cc1C1CC1 (stereo partly drawn) [Example 511C, 5-(2-((1S)-1-(2-(5-cyclopropyl-3-(trifluoromethyl)-1H-pyrazol-1-yl)butanamido)-2-(3,5-difluorophenyl)ethyl)pyridin-3-yl)-2-fluorobenzamide] | 11800 nM | 17% |
| NC(=O)c1cc(-c2cccnc2[C@H](Cc2cc(F)cc(F)c2)NC(=O)Cn2cc(C(F)F)c(C(F)(F)F)n2)ccc1F [Example 350, (S)-5-(2-(1-(2-(4-(difluoromethyl)-3-(trifluoromethyl)-1H-pyrazol-1-yl)acetamido)-2-(3,5-difluorophenyl)ethyl)pyridin-3-yl)-2-fluorobenzamide] | 28100 nM | 10% |
| NC(=O)c1cccc(-c2cccnc2[C@H](Cc2cc(F)cc(F)c2)NC(=O)Cn2cnc3c2CCCC3)c1 [Example 382, (S)-3-(2-(2-(3,5-difluorophenyl)-1-(2-(4,5,6,7-tetrahydro-1H-benzo[d]imidazol-1-yl)acetamido)ethyl)pyridin-3-yl)benzamide] | > 39900 nM | 85% |
| CC(C)(C)OC(=O)NCc1ccc2[nH]cc(CC(=O)N[C@@H](Cc3cc(F)cc(F)c3)c3ncccc3-c3ccc(Cl)cc3)c2c1 [Example 557, (S)-tert-butyl (3-(2-(1-(3-(4-chlorophenyl)pyridin-2-yl)-2-(3,5-difluorophenyl)ethylamino)-2-oxoethyl)-1H-indol-5-yl)methylcarbamate] | 7860 nM | 73% |
| Cc1cccc(-c2cccnc2[C@H](Cc2cc(F)cc(F)c2)NC(=O)Cn2nc(C(F)(F)F)c3c2CCCC3)c1 [Example 76, (S)—N-(2-(3,5-difluorophenyl)-1-(3-m-tolylpyridin-2-yl)ethyl)-2-(3-(trifluoromethyl)-4,5,6,7-tetrahydro-1H-indazol-1-yl)acetamide] | 11500 nM | 20% |
| COc1ccc(-c2cccnc2[C@@H](Cc2ccccc2)NC(=O)Cc2c[nH]c3ccc(O)cc23)cc1 [Example 22, (R)-2-(5-hydroxy-1H-indol-3-yl)-N-(1-(3-(4-methoxyphenyl)pyridin-2-yl)-2-phenylethyl)acetamide] | 45700 nM | 0% |
| Cc1cc2ncn(CC(=O)N[C@@H](Cc3cc(F)cc(F)c3)c3ncncc3-c3ccc(Cl)cc3)c2cc1C [Example 320, (S)—N-(1-(5-(4-chlorophenyl)pyrimidin-4-yl)-2-(3,5-difluorophenyl)ethyl)-2-(5,6-dimethyl-1H-benzo[d]imidazol-1-yl)acetamide] | 12500 nM | 110% |
| NC(=O)c1cc(-c2cccnc2[C@H](Cc2cc(F)cc(F)c2)NC(=O)Cn2nc(C(F)(F)F)c3c2CC(F)(F)CC3)ccc1F [Example 387, (S)-5-(2-(1-(2-(6,6-difluoro-3-(trifluoromethyl)-4,5,6,7-tetrahydro-1H-indazol-1-yl)acetamido)-2-(3,5-difluorophenyl)ethyl)pyridin-3-yl)-2-fluorobenzamide] | 21200 nM | 61% |
| CNC(=O)c1ccc(-c2cccnc2[C@H](Cc2cc(F)cc(F)c2)NC(=O)Cc2c[nH]c3ccc(O)cc23)cc1 [Example 45, (S)-4-(2-(2-(3,5-difluorophenyl)-1-(2-(5-hydroxy-1H-indol-3-yl)acetamido)ethyl)pyridin-3-yl)-N-methylbenzamide] | > 53000 nM | 32% |
| COc1ccc(-c2cccnc2[C@@H](Cc2ccccc2)NC(=O)Cn2nc(C(F)(F)F)c3c2CCCC3)cc1 [Example 23, (R)—N-(1-(3-(4-methoxyphenyl)pyridin-2-yl)-2-phenylethyl)-2-(3-(trifluoromethyl)-4,5,6,7-tetrahydro-1H-indazol-1-yl)acetamide] | 13800 nM | 0% |
| NC(=O)c1cc(-c2cccnc2[C@H](Cc2cc(F)cc(F)c2)NC(=O)Cc2n[nH]c3ccc(C(F)(F)F)cc23)ccc1F [Example 141G, (S)-5-(2-(2-(3,5-difluorophenyl)-1-(2-(5-(trifluoromethyl)-1H-indazol-3-yl)acetamido)ethyl)pyridin-3-yl)-2-fluorobenzamide] | 21800 nM | 4% |
| O=C(Cn1nc(C(F)(F)F)c2c1CCCC2)N[C@@H](Cc1cc(F)cc(F)c1)c1ncccc1-c1cccc(F)c1 [Example 117, (S)—N-(2-(3,5-difluorophenyl)-1-(3-(3-fluorophenyl)pyridin-2-yl)ethyl)-2-(3-(trifluoromethyl)-4,5,6,7-tetrahydro-1H-indazol-1-yl)acetamide] | 8260 nM | 89% |
| O=C(Cn1nc(C(F)F)c2c1C(F)(F)C1CC21)N[C@@H](Cc1cc(F)cc(F)c1)c1ncccc1-c1ccc(NC(=O)NC2CC2)cc1 (stereo partly drawn) [Example 114, (S)—N-(1-(3-(4-(3-cyclopropylureido)phenyl)-pyridin-2-yl)-2-(3,5-difluorophenyl)ethyl)-2-(3-(difluoromethyl)-5,6-dihydro-4,5-(methano)-6,6-difluoro-cyclopenta[c]pyrazol-1(4H)-yl)acetamide] | > 53200 nM | 32% |
| NC(=O)c1cc(-c2cccnc2[C@H](Cc2cc(F)cc(F)c2)NC(=O)Cn2nc(C(F)(F)F)c3c2C(=O)CCC3)ccc1F [Example 273, (S)-5-(2-(2-(3,5-difluorophenyl)-1-(2-(7-oxo-3-(trifluoromethyl)-4,5,6,7-tetrahydro-1H-indazol-1-yl)acetamido)ethyl)pyridin-3-yl)-2-fluorobenzamide] | 29600 nM | 10% |
| CNc1ccc(-c2cccnc2[C@H](Cc2cc(F)cc(F)c2)NC(=O)Cn2nc(C(F)F)c3c2C(F)(F)CCC3(F)F)cn1 [Example 287E, (S)-2-(3-(difluoromethyl)-4,4,7,7-tetrafluoro-4,5,6,7-tetrahydro-1H-indazol-1-yl)-N-(2-(3,5-difluorophenyl)-1-(6′-(methylamino)-3,3′-bipyridin-2-yl)ethyl)acetamide] | 16000 nM | 98% |
| Cc1[nH]nc(-c2ccccc2)c1CC(=O)N[C@@H](Cc1cc(F)cc(F)c1)c1ncccc1-c1ccc(F)c(C(N)=O)c1 [Example 184, (S)-5-(2-(2-(3,5-difluorophenyl)-1-(2-(5-methyl-3-phenyl-1H-pyrazol-4-yl)acetamido)ethyl)pyridin-3-yl)-2-fluorobenzamide] | 43200 nM | 5% |
| NC(=O)c1cc(-c2cccnc2[C@H](Cc2cc(F)cc(F)c2)NC(=O)Cn2nc(Br)nc2C2CC2)ccc1F [Example 366, (S)-5-(2-(1-(2-(3-bromo-5-cyclopropyl-1H-1,2,4-triazol-1-yl)acetamido)-2-(3,5-difluorophenyl)ethyl)pyridin-3-yl)-2-fluorobenzamide] | > 53200 nM | 6% |
| NC(=O)c1cccc(-c2cccnc2[C@H](Cc2cc(F)cc(F)c2)NC(=O)Cn2ccc3cnc(Cl)nc32)c1 [Example 266C, (S)-3-(2-(1-(2-(2-chloro-7H-pyrrolo[2,3-d]pyrimidin-7-yl)acetamido)-2-(3,5-difluorophenyl)ethyl)pyridin-3-yl)benzamide] | 51900 nM | 0% |
